Measurements: PubChem BioAssay AID1259407 (Chemical Carcinogenesis Research Information System (CCRIS), 2018)
Calls of active or inactive are those of the source. The rule behind the calls is not given here.

Test system: CCRIS mutagenicity, Ames/micronucleus/aberration tests
Assay: CCRIS mutagenicity studies
[1] = Test System: AMES SALMONELLA TYPHIMURIUM, Strain/Indicator: TA98, Metabolic Activation: RAT, LIVER, S-9, AROCLOR 1254, Method: STANDARD PLATE
[2] = Test System: AMES SALMONELLA TYPHIMURIUM, Strain/Indicator: TA100, Metabolic Activation: NONE, Method: STANDARD PLATE
[3] = Test System: AMES SALMONELLA TYPHIMURIUM, Strain/Indicator: TA1537, Metabolic Activation: RAT, LIVER, S-9, AROCLOR 1254, Method: STANDARD PLATE
[4] = Test System: AMES SALMONELLA TYPHIMURIUM, Strain/Indicator: TA1538, Metabolic Activation: RAT, LIVER, S-9, AROCLOR 1254, Method: STANDARD PLATE
[5] = Test System: AMES SALMONELLA TYPHIMURIUM, Strain/Indicator: TA98, Metabolic Activation: NONE, Method: STANDARD PLATE

With COc1cc(-c2ccc(N=C=O)c(OC)c2)ccc1N=C=O the mutagenic call (Test System: AMES SALMONELLA TYPHIMURIUM, Strain/Indicator: TA98, Metabolic Activation: HAMSTER, LIVER, S-9, AROCLOR 1254, Method: STANDARD PLATE) was “active; positive”, the mutagenic call (Test System: AMES SALMONELLA TYPHIMURIUM, Strain/Indicator: TA98, Metabolic Activation: HAMSTER, LIVER, S-9, Method: STANDARD PLATE) was “active; positive” and the mutagenic call (Test System: AMES SALMONELLA TYPHIMURIUM, Strain/Indicator: TA98, Metabolic Activation: MOUSE, LIVER, S-9, AROCLOR 1254, Method: STANDARD PLATE) was “active; positive”. For the same molecule, the mutagenic call (Test System: AMES SALMONELLA TYPHIMURIUM, Strain/Indicator: TA98, Metabolic Activation: MOUSE, LIVER, S-9, Method: STANDARD PLATE) was “active; positive”, the mutagenic call [1] was “active; positive” and the mutagenic call (Test System: AMES SALMONELLA TYPHIMURIUM, Strain/Indicator: TA98, Metabolic Activation: RAT, LIVER, S-9, Method: STANDARD PLATE) was “active; positive”. For the same molecule, the mutagenic call (Test System: AMES SALMONELLA TYPHIMURIUM, Strain/Indicator: TA100, Metabolic Activation: HAMSTER, LIVER, S-9, AROCLOR 1254, Method: STANDARD PLATE) was “inactive; negative”, the mutagenic call (Test System: AMES SALMONELLA TYPHIMURIUM, Strain/Indicator: TA100, Metabolic Activation: HAMSTER, LIVER, S-9, Method: STANDARD PLATE) was “inactive; negative” and the mutagenic call (Test System: AMES SALMONELLA TYPHIMURIUM, Strain/Indicator: TA100, Metabolic Activation: MOUSE, LIVER, S-9, AROCLOR 1254, Method: STANDARD PLATE) was “inactive; negative”. The mutagenic call (Test System: AMES SALMONELLA TYPHIMURIUM, Strain/Indicator: TA100, Metabolic Activation: MOUSE, LIVER, S-9, Method: STANDARD PLATE) was “inactive; negative”, the mutagenic call [2] was “inactive; negative” and the mutagenic call (Test System: AMES SALMONELLA TYPHIMURIUM, Strain/Indicator: TA1535, Metabolic Activation: HAMSTER, LIVER, S-9, AROCLOR 1254, Method: STANDARD PLATE) was “inactive; negative”. For the same molecule, the mutagenic call (Test System: AMES SALMONELLA TYPHIMURIUM, Strain/Indicator: TA1535, Metabolic Activation: HAMSTER, LIVER, S-9, Method: STANDARD PLATE) was “inactive; negative”, the mutagenic call (Test System: AMES SALMONELLA TYPHIMURIUM, Strain/Indicator: TA1535, Metabolic Activation: MOUSE, LIVER, S-9, AROCLOR 1254, Method: STANDARD PLATE) was “inactive; negative” and the mutagenic call (Test System: AMES SALMONELLA TYPHIMURIUM, Strain/Indicator: TA1535, Metabolic Activation: MOUSE, LIVER, S-9, Method: STANDARD PLATE) was “inactive; negative”. For the same molecule, the mutagenic call (Test System: AMES SALMONELLA TYPHIMURIUM, Strain/Indicator: TA1535, Metabolic Activation: NONE, Method: STANDARD PLATE) was “inactive; negative”, the mutagenic call (Test System: AMES SALMONELLA TYPHIMURIUM, Strain/Indicator: TA1535, Metabolic Activation: RAT, LIVER, S-9, AROCLOR 1254, Method: STANDARD PLATE) was “inactive; negative” and the mutagenic call (Test System: AMES SALMONELLA TYPHIMURIUM, Strain/Indicator: TA1535, Metabolic Activation: RAT, LIVER, S-9, Method: STANDARD PLATE) was “inactive; negative”. For the same molecule, the mutagenic call (Test System: AMES SALMONELLA TYPHIMURIUM, Strain/Indicator: TA1537, Metabolic Activation: HAMSTER, LIVER, S-9, AROCLOR 1254, Method: STANDARD PLATE) was “inactive; negative”, the mutagenic call (Test System: AMES SALMONELLA TYPHIMURIUM, Strain/Indicator: TA1537, Metabolic Activation: HAMSTER, LIVER, S-9, Method: STANDARD PLATE) was “inactive; negative” and the mutagenic call (Test System: AMES SALMONELLA TYPHIMURIUM, Strain/Indicator: TA1537, Metabolic Activation: MOUSE, LIVER, S-9, AROCLOR 1254, Method: STANDARD PLATE) was “inactive; negative”. For the same molecule, the mutagenic call (Test System: AMES SALMONELLA TYPHIMURIUM, Strain/Indicator: TA1537, Metabolic Activation: MOUSE, LIVER, S-9, Method: STANDARD PLATE) was “inactive; negative”, the mutagenic call (Test System: AMES SALMONELLA TYPHIMURIUM, Strain/Indicator: TA1537, Metabolic Activation: NONE, Method: STANDARD PLATE) was “inactive; negative” and the mutagenic call [3] was “inactive; negative”. For the same molecule, the mutagenic call (Test System: AMES SALMONELLA TYPHIMURIUM, Strain/Indicator: TA1537, Metabolic Activation: RAT, LIVER, S-9, Method: STANDARD PLATE) was “inactive; negative”, the mutagenic call (Test System: AMES SALMONELLA TYPHIMURIUM, Strain/Indicator: TA1538, Metabolic Activation: HAMSTER, LIVER, S-9, AROCLOR 1254, Method: STANDARD PLATE) was “active; positive” and the mutagenic call (Test System: AMES SALMONELLA TYPHIMURIUM, Strain/Indicator: TA1538, Metabolic Activation: HAMSTER, LIVER, S-9, Method: STANDARD PLATE) was “active; positive”. The mutagenic call (Test System: AMES SALMONELLA TYPHIMURIUM, Strain/Indicator: TA1538, Metabolic Activation: MOUSE, LIVER, S-9, AROCLOR 1254, Method: STANDARD PLATE) was “active; positive”, the mutagenic call (Test System: AMES SALMONELLA TYPHIMURIUM, Strain/Indicator: TA1538, Metabolic Activation: MOUSE, LIVER, S-9, Method: STANDARD PLATE) was “active; positive” and the mutagenic call [4] was “active; positive”. For the same molecule, the mutagenic call (Test System: AMES SALMONELLA TYPHIMURIUM, Strain/Indicator: TA1538, Metabolic Activation: RAT, LIVER, S-9, Method: STANDARD PLATE) was “active; positive”, the mutagenic call (Test System: E. COLI, Strain/Indicator: WP2 UVRA, Metabolic Activation: HAMSTER, LIVER, S-9, AROCLOR 1254, Method: STANDARD PLATE) was “inactive; negative” and the mutagenic call (Test System: E. COLI, Strain/Indicator: WP2 UVRA, Metabolic Activation: HAMSTER, LIVER, S-9, Method: STANDARD PLATE) was “inactive; negative”. For the same molecule, the mutagenic call (Test System: E. COLI, Strain/Indicator: WP2 UVRA, Metabolic Activation: MOUSE, LIVER, S-9, AROCLOR 1254, Method: STANDARD PLATE) was “inactive; negative”, the mutagenic call (Test System: E. COLI, Strain/Indicator: WP2 UVRA, Metabolic Activation: MOUSE, LIVER, S-9, Method: STANDARD PLATE) was “inactive; negative” and the mutagenic call (Test System: E. COLI, Strain/Indicator: WP2 UVRA, Metabolic Activation: NONE, Method: STANDARD PLATE) was “inactive; negative”. The mutagenic call (Test System: E. COLI, Strain/Indicator: WP2 UVRA, Metabolic Activation: RAT, LIVER, S-9, AROCLOR 1254, Method: STANDARD PLATE) was “inactive; negative” and the mutagenic call (Test System: E. COLI, Strain/Indicator: WP2 UVRA, Metabolic Activation: RAT, LIVER, S-9, Method: STANDARD PLATE) was “inactive; negative”.
For c1cc2ccc3ccc4ccc5cccc6c(c1)c2c3c4c56, the mutagenic call (Test System: AMES SALMONELLA TYPHIMURIUM, Strain/Indicator: TA97, Metabolic Activation: NONE, Method: STANDARD PLATE) was “inactive; negative”, the mutagenic call (Test System: AMES SALMONELLA TYPHIMURIUM, Strain/Indicator: TA97, Metabolic Activation: RAT, LIVER, S-9, PCB, Method: STANDARD PLATE) was “active; positive” and the mutagenic call [5] was “inactive; negative”. The mutagenic call (Test System: AMES SALMONELLA TYPHIMURIUM, Strain/Indicator: TA98, Metabolic Activation: RAT, LIVER, S-9, AROCLOR 1254, Method: FLUCTUATION) was “active; positive”, the mutagenic call [1] was “active; positive” and the mutagenic call (Test System: AMES SALMONELLA TYPHIMURIUM, Strain/Indicator: TA98, Metabolic Activation: RAT, LIVER, S-9, PCB, Method: STANDARD PLATE) was “active; positive”. For the same molecule, the mutagenic call [2] was “inactive; negative”, the mutagenic call (Test System: AMES SALMONELLA TYPHIMURIUM, Strain/Indicator: TA100, Metabolic Activation: RAT, LIVER, S-9, AROCLOR 1254, Method: STANDARD PLATE) was “active; positive” and the mutagenic call (Test System: AMES SALMONELLA TYPHIMURIUM, Strain/Indicator: TA100, Metabolic Activation: RAT, LIVER, S-9, PCB, Method: STANDARD PLATE) was “inactive; negative”. For the same molecule, the mutagenic call [3] was “active; positive”, the mutagenic call (Test System: AMES SALMONELLA TYPHIMURIUM, Strain/Indicator: TA1538, Metabolic Activation: RAT, LIVER, S-9, AROCLOR 1254, Method: FLUCTUATION) was “active; positive” and the mutagenic call [4] was “active; positive”. For the same molecule, the mutagenic call (Test System: AMES SALMONELLA TYPHIMURIUM, Strain/Indicator: TA1538, Metabolic Activation: RAT, LIVER, S-9, PHENOBARBITAL, Method: STANDARD PLATE) was “active; positive”.
In the case of Cc1c(N)cnc2c1nc1c(C)cccn12, the mutagenic call [5] is reported as “inactive; negative”, the mutagenic call (Test System: AMES SALMONELLA TYPHIMURIUM, Strain/Indicator: TA98, Metabolic Activation: RAT, LIVER, CYTOSOL, AROCLOR 1254, Method: STANDARD PLATE) is reported as “active; positive” and the mutagenic call (Test System: AMES SALMONELLA TYPHIMURIUM, Strain/Indicator: TA98, Metabolic Activation: RAT, LIVER, MICROSOMES, AROCLOR 1254, Method: STANDARD PLATE) is reported as “active; positive”. The mutagenic call [1] was “active; positive”.
